Data taken from patent publication US20240317735A1, “HYDROISOQUINOLINE OR HYDRONAPHTHYRIDINE COMPOUNDS FOR THE TREATMENT OF AUTOIMMUNE DISEASE” (Hoffmann-La Roche Inc., priority 2020, published 2024).

Target: T1, human TLR7 (Homo sapiens, UniProt Q9NYK1)
T1 construct: host or cells: HEK293 (HEK-Blue hTLR7)
T1 sequence (Q9NYK1 27-1049): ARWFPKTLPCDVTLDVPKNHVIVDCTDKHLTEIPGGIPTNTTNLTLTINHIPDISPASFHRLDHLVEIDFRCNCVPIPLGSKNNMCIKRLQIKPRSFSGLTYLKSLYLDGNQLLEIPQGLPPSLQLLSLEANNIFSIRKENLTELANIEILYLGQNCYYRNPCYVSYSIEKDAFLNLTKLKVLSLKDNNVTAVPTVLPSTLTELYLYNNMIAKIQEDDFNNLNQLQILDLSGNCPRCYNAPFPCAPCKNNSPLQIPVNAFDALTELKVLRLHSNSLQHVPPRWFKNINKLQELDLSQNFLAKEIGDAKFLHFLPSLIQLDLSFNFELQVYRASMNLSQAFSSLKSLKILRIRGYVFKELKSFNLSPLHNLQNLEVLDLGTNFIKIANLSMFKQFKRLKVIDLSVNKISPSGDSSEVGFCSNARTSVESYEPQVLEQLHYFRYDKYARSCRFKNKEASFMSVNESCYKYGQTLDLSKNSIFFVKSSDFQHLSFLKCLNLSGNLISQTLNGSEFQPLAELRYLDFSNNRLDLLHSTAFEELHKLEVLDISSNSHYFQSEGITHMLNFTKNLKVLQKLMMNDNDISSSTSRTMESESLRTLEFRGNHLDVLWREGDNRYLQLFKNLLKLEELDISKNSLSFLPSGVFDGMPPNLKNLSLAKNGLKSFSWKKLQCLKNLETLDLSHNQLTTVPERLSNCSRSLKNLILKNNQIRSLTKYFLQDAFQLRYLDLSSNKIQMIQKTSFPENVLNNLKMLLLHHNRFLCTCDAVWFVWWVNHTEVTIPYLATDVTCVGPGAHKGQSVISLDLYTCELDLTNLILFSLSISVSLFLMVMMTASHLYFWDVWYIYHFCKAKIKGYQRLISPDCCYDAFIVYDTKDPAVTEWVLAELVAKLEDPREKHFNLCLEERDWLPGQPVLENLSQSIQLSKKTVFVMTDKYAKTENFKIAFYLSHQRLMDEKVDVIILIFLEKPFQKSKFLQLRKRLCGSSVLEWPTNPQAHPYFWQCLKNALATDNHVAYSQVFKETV
Assay: HEK293-Blue-hTLR-7 cells assay (SEAP reporter, R848 stimulation)
Type: cell-based
Details: HEK293-Blue-hTLR7 cells, R848, 20 hrs; read-out: HEK/hTLR7 IC50
Description: The following tests were carried out in order to determine the activity of the compounds of formula (I) and (Ia) in HEK293-Blue-hTLR-7/8/9 cells assay.
A stable HEK293-Blue-hTLR-7 cell line was purchased from InvivoGen (Cat. #: hkb-htlr7, San Diego, California, USA). These cells were originally designed for studying the stimulation of human TLR7 by monitoring the activation of NF-κB. A SEAP (secreted embryonic alkaline phosphatase) reporter gene was placed under the control of the IFN-β minimal promoter fused to five NF-κB and AP-1-binding sites. The SEAP was induced by activating NF-κB and AP-1 via stimulating HEK-Blue hTLR7 cells with TLR7 ligands. Therefore the reporter expression w % as declined by TLR7 antagonist under the stimulation of a ligand, such as R848 (Resiquimod), for incubation of 20 hrs. The cell culture supernatant SEAP reporter activity was determined using QUANTI-Blue™ kit (Cat. #: rep-qb1, Invivogen, San Diego, Ca, USA) at a wavelength of 640 nm, a detection medium that turns purple or blue in the presence of alkaline phosphatase.
HEK293-Blue-hTLR7 cells were incubated at a density of 250,000˜450,000 cells/mL in a volume of 170 μL in a 96-well plate in Dulbecco's Modified Eagle's medium (DMEM) containing 4.5 g/L glucose, 50 U/mL penicillin, […], […] Normocin, 2 mM L-glutamine, 10% (v/v) heat-inactivated fetal bovine serum with addition of 20 μL test compound in a serial dilution in the presence of final DMSO at 1% and 10 μL of 20 uM R848 in above DMEM, perform incubation under 37° C. in a C02 incubator for 20 hrs. Then 20 μL of the supernatant from each well was incubated with 180 μL Quanti-blue substrate solution at 37° C. for 2 hrs and the absorbance was read at 620˜655 nm using a spectrophotometer. The signaling pathway that TLR7 activation leads to downstream NF-κB activation has been widely accepted, and therefore similar reporter assay was modified for evaluating TLR7 antagonist.

| IC50 [nM] | SMILES |
| --- | --- |
| 5 | C[C@H]1CN(c2ccnc3c2cnn3C)Cc2ccc(N3CCNC(CO)C3)cc21 (stereo partly drawn) [Example 49, [4-[(4R)-4-methyl-2-(1-methylpyrazolo[3,4-b]pyridin-4-yl)-3,4-dihydro-1H-isoquinolin-6-yl]piperazin-2-yl]methanol] |
| 7 | C[C@H]1CN(c2ccnc3c2cnn3C)Cc2ccc(OC3CN(C4CCNCC4)C3)cc21 [Example 41, (4R)-4-methyl-2-(1-methylpyrazolo[3,4-b]pyridin-4-yl)-6-[1-(4-piperidyl)azetidin-3-yl]oxy-3,4-dihydro-1H-isoquinoline] |
| 6 | C[C@H]1CN(c2ccnc3c2cnn3C)Cc2ccc(N3CCN(S(=O)(=O)C4CCNC4)CC3)cc21 (stereo partly drawn) [Example 33, (4R)-4-methyl-2-(1-methylpyrazolo[3,4-b]pyridin-4-yl)-6-(4-pyrrolidin-3-ylsulfonylpiperazin-1-yl)-3,4-dihydro-1H-isoquinoline] |
| 3 | Cc1cc(N2Cc3ccc(N4CCC(N(C)C)CC4)nc3[C@@H](C)C2)c2cnn(C)c2n1 [Example 60, N,N-dimethyl-1-[(8S)-6-(1,6-dimethylpyrazolo[3,4-b]pyridin-4-yl)-8-methyl-7,8-dihydro-5H-1,6-naphthyridin-2-yl]piperidin-4-amine] |
| 13 | Cc1cc(N2Cc3ccc(N4C[C@@H](N)[C@H](O)C4)cc3[C@@H](C)C2)c2cnn(C)c2n1 [Example 47, trans-4-amino-1-[(4R)-2-(1,6-dimethylpyrazolo[3,4-b]pyridin-4-yl)-4-methyl-3,4-dihydro-1H-isoquinolin-6-yl]pyrrolidin-3-ol] |
| 8 | Cc1cc(N2Cc3ccc(N4CCNCC4)cc3[C@@H](C)C2)c2cnn(C)c2n1 [Example 2, (4R)-2-(1,6-dimethylpyrazolo[3,4-b]pyridin-4-yl)-4-methyl-6-piperazin-1-yl-3,4-dihydro-1H-isoquinoline] |
| 24 | C[C@H]1CN(c2ccnc3c2cnn3C)Cc2ccc(N3CC4(CCNC4)OC3=O)cc21 (stereo partly drawn) [Example 35, 3-[(4R)-4-methyl-2-(1-methylpyrazolo[3,4-b]pyridin-4-yl)-3,4-dihydro-1H-isoquinolin-6-yl]-1-oxa-3,7-diazaspiro[4.4]nonan-2-one] |
| 6 | Cc1cc(N2Cc3cnc(N4CCNCC4)cc3[C@@H](C)C2)c2cnn(C)c2n1 [Example 74, (4R)-2-(1,6-dimethylpyrazolo[3,4-b]pyridin-4-yl)-4-methyl-6-piperazin-1-yl-3,4-dihydro-1H-2,7-naphthyridine] |
| 12 | Cc1cc(N2Cc3cnc(N4CC[C@@H](N)[C@H](F)C4)cc3[C@@H](C)C2)c2cnn(C)c2n1 [Example 80, (3R,4R)-3-fluoro-1-[(5R)-7-(1,6-dimethylpyrazolo[3,4-b]pyridin-4-yl)-5-methyl-6,8-dihydro-5H-2,7-naphthyridin-3-yl]piperidin-4-amine] |
| 53 | C[C@H]1CN(c2ccnc3c2cnn3C)Cc2ccc(N3C[C@]4(CCNC4)CC3=O)cc21 (single isomer, unassigned) [Example 54] |
| 19 | Cc1cc(N2Cc3cnc(N4CC5(CNCCO5)C4)cc3[C@@H](C)C2)c2cnn(C)c2n1 [Example 79, 2-[(5R)-7-(1,6-dimethylpyrazolo[3,4-b]pyridin-4-yl)-5-methyl-6,8-dihydro-5H-2,7-naphthyridin-3-yl]-5-oxa-2,8-diazaspiro[3.5]nonane] |
| 41 | COC[C@H]1CN(c2cc3c(cn2)CN(c2cc(C)nc4c2cnn4C)C[C@@H]3C)CCN1 [Example 81, (4R)-2-(1,6-dimethylpyrazolo[3,4-b]pyridin-4-yl)-4-methyl-6-[(3R)-3-(methoxymethyl)piperazin-1-yl]-3,4-dihydro-1H-2,7-naphthyridine] |
| 10 | CCn1ncc2c(N3Cc4ccc(N5CCNCC5)cc4[C@@H](C)C3)ccnc21 [Example 22, (4R)-2-(1-ethylpyrazolo[3,4-b]pyridin-4-yl)-4-methyl-6-piperazin-1-yl-3,4-dihydro-1H-isoquinoline] |
| 18 | C[C@H]1CN(c2ccnc3c2cnn3C)Cc2ccc(N3CCN(C(=O)C4CCNCC4)CC3)cc21 [Example 7, 4-piperidyl-[4-[(4R)-4-methyl-2-(1-methylpyrazolo[3,4-b]pyridin-4-yl)-3,4-dihydro-1H-isoquinolin-6-yl]piperazin-1-yl]methanone] |
| 7 | C[C@H]1CN(c2ccnc3c2cnn3C)Cc2ccc(N3CCN(c4cc5c(cn4)CCNC5)CC3)cc21 [Example 9, 7-[4-[(4R)-4-methyl-2-(1-methylpyrazolo[3,4-b]pyridin-4-yl)-3,4-dihydro-1H-isoquinolin-6-yl]piperazin-1-yl]-1,2,3,4-tetrahydro-2,6-naphthyridine] |
| 4 | CO[C@H]1CN(c2cc3c(cn2)CN(c2cc(C)nc4c2cnn4C)C[C@@H]3C)CC[C@@H]1N [Example 73, (3S,4S)-3-methoxy-1-[(5R)-7-(1,6-dimethylpyrazolo[3,4-b]pyridin-4-yl)-5-methyl-6,8-dihydro-5H-2,7-naphthyridin-3-yl]piperidin-4-amine] |
| 7 | C[C@H]1CN(c2ccnc3c2cnn3C)Cc2ccc(N3CC4(CNCCO4)C3)cc21 [Example 21, 2-[(4R)-4-methyl-2-(1-methylpyrazolo[3,4-b]pyridin-4-yl)-3,4-dihydro-1H-isoquinolin-6-yl]-5-oxa-2,8-diazaspiro[3.5]nonane] |
| 10 | C[C@H]1CN(c2ccnc3c2cnn3C)Cc2ccc(N3C[C@H]4CNCCN4C3=O)cc21 [Example 24, (8aR)-2-[(4R)-4-methyl-2-(1-methylpyrazolo[3,4-b]pyridin-4-yl)-3,4-dihydro-1H-isoquinolin-6-yl]-1,5,6,7,8,8a-hexahydroimidazo[1,5-a]pyrazin-3-one] |
| 30 | Cc1cc(N2Cc3ccc(N4C[C@@H](F)[C@@H](N)C4)nc3[C@@H](C)C2)c2cnn(C)c2n1 [Example 69, (3S,4R)-4-fluoro-1-[(8S)-6-(1,6-dimethylpyrazolo[3,4-b]pyridin-4-yl)-8-methyl-7,8-dihydro-5H-1,6-naphthyridin-2-yl]pyrrolidin-3-amine] |

| SMILES | IC50 [nM] |
| --- | --- |
| C[C@H]1CN(c2ccnc3c2cnn3C)Cc2ccc(N3CCNCC3)nc21 [Example 62, (8S)-8-methyl-6-(1-methylpyrazolo[3,4-b]pyridin-4-yl)-2-piperazin-1-yl-7,8-dihydro-5H-1,6-naphthyridine] | 5 |
| C[C@H]1CN(c2ccnc3c2cnn3C)Cc2ccc(N3C4CCC3CNC4)cc21 [Example 27, (4R)-6-(3,8-diazabicyclo[3.2.1]octan-8-yl)-4-methyl-2-(1-methylpyrazolo[3,4-b]pyridin-4-yl)-3,4-dihydro-1H-isoquinoline] | 4 |
| Cn1ncc2c(N3CCc4cc(N5CCNCC5)ccc4C3)ccnc21 [Example 3, 2-(1-methylpyrazolo[3,4-b]pyridin-4-yl)-6-piperazin-1-yl-3,4-dihydro-1H-isoquinoline] | 19 |
| C[C@H]1CN(c2ccnc3c2cnn3C)Cc2ccc(OC[C@H]3CNCCN3)cc21 [Example 18, (4R)-4-methyl-2-(1-methylpyrazolo[3,4-b]pyridin-4-yl)-6-[[(2R)-piperazin-2-yl]methoxy]-3,4-dihydro-1H-isoquinoline] | 8 |
